What all share (type): biochemical
One experiment concerns the target T1, hACC1-CT (Homo sapiens, UniProt Q13085).
T1 construct: PCR primers were designed for full-length hACC1 and hACC2 using GenBank submissions AY237919 and AJ575592, respectively; His tag (C); made in house; host or cells: baculovirus, Sf9 insect cells
Put plainly: acetyl-CoA/malonyl-CoA isotope exchange assay, CT half-reaction. As for the experimental part:
Overall ACC activity is comprised of two half-reactions, the BC reaction (the ATP-dependent carboxylation of biotin) and the CT reaction (the transfer of the carboxyl group from biotin to acetyl-CoA to form malonyl-CoA). Thus, it is of interest to localize the site of action of ACC inhibitors. To this end, representative compounds are tested in an acetyl-CoA/malonyl-CoA isotope exchange reaction which specifically measures the CT-half reaction. This assay is performed with slight modifications of published procedures (Gregolin et al., J Biol Chem, 1968, 243:4227-4235; Rendina et al., J Agric Food Chem, 1990, 38:1282-1287). Briefly, the reaction mixture (50 μL) contained 50 mM Hepes (pH 7.4), 20 mM K-citrate, 1.5 mM MgSO4, 4 mM malonyl-CoA, 1.67 mM acetyl-CoA, 0.34 mM [^14C]acetyl-CoA (about 60 mCi/mmol), 0.75 mg/mL BSA, and 1% (v/v) DMSO with or without inhibitor. Reactions are initiated by the addition of hACCl (0.3 μg) or hACC2 (0.15 μg) enzyme and incubated at 37° C. for 10 min. Reactions are stopped by addition of a 0.2M sodium arsenate solution containing 1U of phosphotransacetylase (13.5 μL) and incubation at room temperature for 30 min. […] The samples are then resuspended in water (200 μL), added to scintillation cocktail (3 mL), and counted in a scintillation counter to quantify radiolabel incorporated into malonyl-CoA. […]

For another experiment, the target named is T2, hACC1 (Homo sapiens, UniProt Q13085).
T2 construct: PCR primers were designed for full-length hACC1 and hACC2 using GenBank submissions AY237919 and AJ575592, respectively; His tag (C); made in house; host or cells: baculovirus, Sf9 insect cells
As to the kind of experiment: [14C]bicarbonate incorporation assay, overall ACC activity. To be noted: recombinant hACC1, overall ACC activity. The method, boiled down:
(§1)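 His-tagged full-length hACC1 or hACC2 (residues 1-148 deleted, Met-Gly added), expressed in sf9 cells with biotin and purified, were assayed by [14C]bicarbonate incorporation into acetyl-CoA. Reactions at pH 7.4 with 2 mM acetyl-CoA, 12 mM NaHCO3 and 1% DMSO were started with 2 mM ATP and run 10 min at 37° C. Acid-stable label was counted and IC50 obtained from dose-response fits.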

In a further experiment the target is T3, hACC2 (Homo sapiens, UniProt O00763).
T3 construct: delete amino acids 1-148 and add Met-Gly in front of Lys149 in the final product; His tag (C); made in house; host or cells: baculovirus, Sf9 insect cells
T3 sequence (O00763 149-2458 limits assumed): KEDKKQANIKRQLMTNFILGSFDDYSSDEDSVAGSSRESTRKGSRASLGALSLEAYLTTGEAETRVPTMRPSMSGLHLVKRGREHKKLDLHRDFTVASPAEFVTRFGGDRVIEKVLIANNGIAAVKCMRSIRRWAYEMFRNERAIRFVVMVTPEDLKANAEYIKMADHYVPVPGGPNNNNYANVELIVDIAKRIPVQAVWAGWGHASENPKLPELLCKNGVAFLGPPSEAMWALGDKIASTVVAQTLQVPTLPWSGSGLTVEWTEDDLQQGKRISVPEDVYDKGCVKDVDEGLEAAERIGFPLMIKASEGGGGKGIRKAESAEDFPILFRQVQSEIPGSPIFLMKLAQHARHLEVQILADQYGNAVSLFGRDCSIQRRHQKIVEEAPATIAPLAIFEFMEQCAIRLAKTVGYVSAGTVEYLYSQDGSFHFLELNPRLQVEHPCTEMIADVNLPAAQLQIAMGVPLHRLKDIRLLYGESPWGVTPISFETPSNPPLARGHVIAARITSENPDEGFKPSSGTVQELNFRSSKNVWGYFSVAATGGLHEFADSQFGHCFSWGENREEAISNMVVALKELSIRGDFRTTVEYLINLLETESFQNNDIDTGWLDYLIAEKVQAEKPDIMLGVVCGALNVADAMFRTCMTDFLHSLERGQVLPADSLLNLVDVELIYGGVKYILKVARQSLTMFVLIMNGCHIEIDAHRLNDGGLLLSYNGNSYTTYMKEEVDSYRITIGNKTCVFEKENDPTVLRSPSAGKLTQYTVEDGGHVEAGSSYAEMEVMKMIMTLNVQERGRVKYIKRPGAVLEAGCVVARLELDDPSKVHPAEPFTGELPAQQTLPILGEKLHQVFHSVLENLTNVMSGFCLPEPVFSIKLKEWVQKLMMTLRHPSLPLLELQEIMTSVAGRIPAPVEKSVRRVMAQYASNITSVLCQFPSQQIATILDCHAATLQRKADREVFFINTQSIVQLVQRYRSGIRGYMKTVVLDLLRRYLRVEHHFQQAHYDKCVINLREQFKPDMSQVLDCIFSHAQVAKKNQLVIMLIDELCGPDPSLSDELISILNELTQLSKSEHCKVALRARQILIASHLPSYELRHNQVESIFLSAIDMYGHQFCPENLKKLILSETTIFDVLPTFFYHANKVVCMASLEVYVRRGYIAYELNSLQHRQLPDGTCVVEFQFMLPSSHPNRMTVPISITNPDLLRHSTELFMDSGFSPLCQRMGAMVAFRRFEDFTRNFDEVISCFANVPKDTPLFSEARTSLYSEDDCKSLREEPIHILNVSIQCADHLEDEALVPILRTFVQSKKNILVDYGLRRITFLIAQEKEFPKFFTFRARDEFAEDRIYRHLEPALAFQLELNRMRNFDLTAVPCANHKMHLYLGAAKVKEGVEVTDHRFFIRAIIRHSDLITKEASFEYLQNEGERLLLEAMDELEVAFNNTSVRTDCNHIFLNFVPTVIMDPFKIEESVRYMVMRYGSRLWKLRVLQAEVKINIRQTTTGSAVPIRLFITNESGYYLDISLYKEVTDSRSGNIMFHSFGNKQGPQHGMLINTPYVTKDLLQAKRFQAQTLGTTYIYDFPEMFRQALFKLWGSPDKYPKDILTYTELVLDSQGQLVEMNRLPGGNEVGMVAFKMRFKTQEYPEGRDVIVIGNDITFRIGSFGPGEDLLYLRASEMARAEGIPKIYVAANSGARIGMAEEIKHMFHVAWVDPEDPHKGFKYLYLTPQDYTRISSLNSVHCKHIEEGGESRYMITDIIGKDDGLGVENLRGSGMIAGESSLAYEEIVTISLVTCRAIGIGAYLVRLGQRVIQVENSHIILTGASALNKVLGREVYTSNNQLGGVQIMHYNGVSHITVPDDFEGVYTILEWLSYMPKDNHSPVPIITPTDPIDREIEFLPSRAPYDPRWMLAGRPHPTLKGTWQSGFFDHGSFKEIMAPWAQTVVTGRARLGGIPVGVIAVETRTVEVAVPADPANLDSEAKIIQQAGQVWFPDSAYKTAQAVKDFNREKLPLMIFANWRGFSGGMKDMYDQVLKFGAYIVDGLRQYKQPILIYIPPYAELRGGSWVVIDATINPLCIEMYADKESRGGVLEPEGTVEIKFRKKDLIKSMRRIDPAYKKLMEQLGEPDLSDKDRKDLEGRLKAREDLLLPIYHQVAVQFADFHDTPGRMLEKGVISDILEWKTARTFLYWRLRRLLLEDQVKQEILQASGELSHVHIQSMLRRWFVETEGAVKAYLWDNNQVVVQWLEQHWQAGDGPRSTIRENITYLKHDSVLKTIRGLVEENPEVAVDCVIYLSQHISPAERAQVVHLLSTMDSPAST
Described as above. To be noted: recombinant hACC2, overall ACC activity. The method, boiled down:
as §1

The target of experiment [1] is uACC (Ustilago maydis ACC) (Ustilago maydis, UniProt A0A0D1DYD5). The description is as above.
Sequence of uACC (Ustilago maydis ACC) (A0A0D1DYD5 entry or part of it): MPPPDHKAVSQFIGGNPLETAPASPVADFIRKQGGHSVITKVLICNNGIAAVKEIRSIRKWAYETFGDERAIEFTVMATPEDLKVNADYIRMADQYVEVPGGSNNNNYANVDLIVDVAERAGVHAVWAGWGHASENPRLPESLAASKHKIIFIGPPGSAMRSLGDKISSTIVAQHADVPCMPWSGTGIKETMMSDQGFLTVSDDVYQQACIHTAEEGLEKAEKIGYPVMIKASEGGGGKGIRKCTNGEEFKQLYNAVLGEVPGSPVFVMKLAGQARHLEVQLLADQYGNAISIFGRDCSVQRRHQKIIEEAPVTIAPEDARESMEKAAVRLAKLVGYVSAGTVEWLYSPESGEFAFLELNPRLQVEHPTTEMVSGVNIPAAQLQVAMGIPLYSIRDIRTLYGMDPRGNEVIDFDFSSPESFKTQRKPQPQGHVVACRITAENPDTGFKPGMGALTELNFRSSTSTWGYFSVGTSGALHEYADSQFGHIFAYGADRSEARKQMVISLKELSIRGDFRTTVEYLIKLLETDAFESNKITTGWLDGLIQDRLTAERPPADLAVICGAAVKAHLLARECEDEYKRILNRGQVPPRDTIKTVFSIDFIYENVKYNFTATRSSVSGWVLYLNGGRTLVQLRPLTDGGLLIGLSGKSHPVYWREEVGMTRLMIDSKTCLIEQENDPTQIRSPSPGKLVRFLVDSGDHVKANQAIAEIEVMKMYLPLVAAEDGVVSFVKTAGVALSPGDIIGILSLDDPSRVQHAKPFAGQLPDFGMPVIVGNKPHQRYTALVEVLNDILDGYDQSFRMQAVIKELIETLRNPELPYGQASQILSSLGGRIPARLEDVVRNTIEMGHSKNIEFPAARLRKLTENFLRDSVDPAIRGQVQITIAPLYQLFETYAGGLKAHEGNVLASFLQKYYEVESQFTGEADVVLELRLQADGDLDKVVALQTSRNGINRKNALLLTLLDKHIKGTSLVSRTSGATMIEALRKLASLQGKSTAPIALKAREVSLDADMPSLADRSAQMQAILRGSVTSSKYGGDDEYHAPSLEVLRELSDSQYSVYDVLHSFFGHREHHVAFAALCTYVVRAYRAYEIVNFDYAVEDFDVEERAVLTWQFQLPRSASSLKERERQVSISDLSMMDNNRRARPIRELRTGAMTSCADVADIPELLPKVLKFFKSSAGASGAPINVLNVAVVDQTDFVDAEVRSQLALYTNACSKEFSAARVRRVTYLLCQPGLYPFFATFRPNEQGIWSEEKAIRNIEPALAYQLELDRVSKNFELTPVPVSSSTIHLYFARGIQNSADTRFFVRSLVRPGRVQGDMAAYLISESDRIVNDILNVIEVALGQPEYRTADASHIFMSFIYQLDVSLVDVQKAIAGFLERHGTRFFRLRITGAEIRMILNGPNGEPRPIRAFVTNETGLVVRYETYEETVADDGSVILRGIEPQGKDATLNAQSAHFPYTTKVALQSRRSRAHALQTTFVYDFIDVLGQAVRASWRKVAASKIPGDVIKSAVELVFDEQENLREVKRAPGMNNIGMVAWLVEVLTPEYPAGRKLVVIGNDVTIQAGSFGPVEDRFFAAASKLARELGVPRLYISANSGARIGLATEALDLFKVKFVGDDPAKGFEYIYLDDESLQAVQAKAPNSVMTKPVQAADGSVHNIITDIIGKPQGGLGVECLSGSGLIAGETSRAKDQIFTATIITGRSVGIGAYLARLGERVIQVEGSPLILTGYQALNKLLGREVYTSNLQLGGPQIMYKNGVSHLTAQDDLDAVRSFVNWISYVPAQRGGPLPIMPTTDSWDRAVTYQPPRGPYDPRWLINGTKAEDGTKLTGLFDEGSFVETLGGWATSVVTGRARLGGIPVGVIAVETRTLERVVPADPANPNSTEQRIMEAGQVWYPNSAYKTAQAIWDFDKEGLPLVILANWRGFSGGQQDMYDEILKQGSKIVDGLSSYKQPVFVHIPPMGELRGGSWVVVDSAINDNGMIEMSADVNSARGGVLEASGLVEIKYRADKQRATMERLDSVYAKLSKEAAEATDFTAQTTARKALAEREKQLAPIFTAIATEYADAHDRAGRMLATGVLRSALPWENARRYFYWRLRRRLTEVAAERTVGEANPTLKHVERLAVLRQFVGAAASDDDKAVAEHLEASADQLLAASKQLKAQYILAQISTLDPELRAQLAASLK

`COc1ccc(OC)c2[nH]c(C(=O)N3CCC4(CC3)NC(=O)c3ccccc3O4)cc12` [Compound 7, 1′-[(4,7-Dimethoxy-1H-indol-2-yl)carbonyl]spiro[2H-1,3-benzoxazin-2,4′-piperidin]-4-(3H)-one]: the IC50 – broadly, the concentration that inhibits the measured activity by half – against hACC1-CT came to 1200 nM; on hACC1, 1100 nM; on hACC2 it was 850 nM; in experiment [1], 20000 nM.

(Values after patent US8110570B2, “Modulators of acetyl-coenzyme A carboxylase and methods of use thereof” (Cropsolution, Inc., priority 2008, dated 2012).)
